# Results from article PMC3589648, “2D- and 3D-QSAR studies of a series of benzopyranes and benzopyrano[3,4b][1,4]-oxazines as inhibitors of the multidrug transporter P-glycoprotein” (Journal of Computer-Aided Molecular Design, 2013).
# Like-named read-outs stand apart in the source and are kept apart here.
# Target: T1, P-glycoprotein (P-gp) (Homo sapiens, UniProt P08183)
# T1 construct: The resistant CEM/vcr1000 line was obtained by stepwise selection in vincristine containing medium; endogenous in cells; host or cells: CCRF-CEM vcr1000 (CEM/vcr1000), a human T-lymphoblast line made multidrug resistant by vincristine selection
# Assay: Daunorubicin efflux inhibition in multidrug resistant CCRF-CEM vcr1000 cells
# Assay type: cell-based
# Details: for factor more active than corresponding unsubstituted analogs 6a and 6b: N-methylated L-valine analogues versus secondary amines
# Protocol: Biological activity of target compounds 5a–22b was assessed using the daunorubicin efflux protocol as described previously. Briefly, multidrug resistant CCRF-CEM vcr 1,000 cells were incubated with daunorubicin and the decrease in mean cellular fluorescence in dependence of time was measured in presence of various concentrations of the modulator. IC50 values were calculated from the concentration–response curve of efflux V max /K m versus concentration of the modulator. Thus, the effect of different modulators on the transport rate is measured in a direct functional assay. Values are given in Table 1 and are the mean of at least three independently performed experiments. Generally, inter experimental variation was below 20 %.
# The human T-lymphoblast cell line CCRF-CEM and the multidrug resistant CEM/vcr1000 cell line were provided by V. Gekeler (Byk Gulden, Konstanz, Germany). The resistant CEM/vcr1000 line was obtained by stepwise selection in vincristine containing medium. Cells were kept under standard culture conditions (RPMI1640 medium supplemented with 10% fetal calf serum). P-gp-expressing resistant cell line was cultured in presence of 1000 ng/mL vincristine. One week prior to the experiments cells were transferred into medium without selective agents or antibiotics. Briefly, cells were pelleted, the supernatant was removed by aspiration and cells were resuspended at a density of 1 x 10^6/ mL in PRMI1640 medium containing 3µmol/l daunomycin. Cell suspensions were incubated at 37°C for 30 min. After this time a steady state of daunorubicin accumulation was reached. Tubes were chilled on ice and cells were pelleted at 500 x g. Cells were washed once in RPMI1640 medium to remove extracellular daunorubicin. […] Generally, 8 serial dilutions were tested for each modulator. After 1, 2, 3 and 4 min aliquots of the incubation mixture were drawn and pipetted into 4 volumes of ice cold stop solution (RPMI1640 medium containing verapamil at a final concentration of 100 µM). Parental CCRF-CEM cells were used to correct for simple membrane diffusion, which was less than 3% of the efflux rates observed in resistant cells. Samples drawn at the respective time points were kept in an ice water bath and measured within one hour on a Becton Dickinson FACS Calibur (Becton Dickinson, Heidelberg, Germany) flow cytometer as described. Dose response curves were fitted to the data points using non-linear least squares and IC50 values were calculated as described by Chiba et al. […] A CV of below 20% was obtained in all determinations.
# [1] = SM Table 2, logarithm of the measured IC50 (μM) of Table 1
# [2] = inhibition of P-gp mediated daunorubicin efflux, CCRF-CEM vcr1000 cells, mean of at least three experiments, read-out: IC50 μM ± SD
# [3] = SM Table 2, logarithm of the measured IC50 (μM) of Table 1, read-out: Exp. LogIC50 (converted)
# T1 sequence (P08183 whole entry): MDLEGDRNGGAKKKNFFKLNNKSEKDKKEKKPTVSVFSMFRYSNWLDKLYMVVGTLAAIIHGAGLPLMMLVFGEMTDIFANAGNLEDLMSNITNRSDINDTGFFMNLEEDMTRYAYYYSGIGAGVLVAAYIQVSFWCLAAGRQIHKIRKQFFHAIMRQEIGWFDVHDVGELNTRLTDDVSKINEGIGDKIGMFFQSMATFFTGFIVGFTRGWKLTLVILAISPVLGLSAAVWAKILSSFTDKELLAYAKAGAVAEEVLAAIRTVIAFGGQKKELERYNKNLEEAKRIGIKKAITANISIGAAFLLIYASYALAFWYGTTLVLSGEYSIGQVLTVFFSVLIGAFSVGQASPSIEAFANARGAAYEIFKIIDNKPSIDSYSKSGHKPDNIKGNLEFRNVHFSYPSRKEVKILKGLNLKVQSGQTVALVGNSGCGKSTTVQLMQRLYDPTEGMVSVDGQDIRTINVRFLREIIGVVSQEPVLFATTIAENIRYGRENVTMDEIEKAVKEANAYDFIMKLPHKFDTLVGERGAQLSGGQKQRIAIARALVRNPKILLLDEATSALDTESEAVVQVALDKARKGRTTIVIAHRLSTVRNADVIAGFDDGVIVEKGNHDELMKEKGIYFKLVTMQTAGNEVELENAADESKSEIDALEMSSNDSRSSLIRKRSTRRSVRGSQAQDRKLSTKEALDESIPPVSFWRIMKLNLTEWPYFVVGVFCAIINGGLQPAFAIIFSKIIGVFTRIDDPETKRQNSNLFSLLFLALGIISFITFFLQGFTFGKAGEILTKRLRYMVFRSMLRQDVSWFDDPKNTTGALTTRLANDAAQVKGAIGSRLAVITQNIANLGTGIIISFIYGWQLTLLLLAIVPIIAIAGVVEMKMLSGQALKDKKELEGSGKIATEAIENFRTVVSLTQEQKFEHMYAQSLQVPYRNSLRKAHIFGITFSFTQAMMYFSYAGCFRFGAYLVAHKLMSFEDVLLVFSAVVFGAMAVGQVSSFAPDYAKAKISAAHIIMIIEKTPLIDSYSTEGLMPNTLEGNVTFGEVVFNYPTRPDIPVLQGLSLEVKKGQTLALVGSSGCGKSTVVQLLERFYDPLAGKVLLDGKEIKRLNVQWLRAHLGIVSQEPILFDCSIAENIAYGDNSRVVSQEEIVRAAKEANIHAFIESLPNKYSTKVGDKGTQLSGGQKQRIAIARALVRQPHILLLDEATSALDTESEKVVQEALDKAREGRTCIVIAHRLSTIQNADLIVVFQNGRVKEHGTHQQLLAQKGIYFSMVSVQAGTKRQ
Compound,Exp. LogIC50 [1],IC50 [2] [µM],factor more active than corresponding unsubstituted analogs 6a and 6b,"factor less active than diastereomeric 4aR,10bS analogue 12b (ratio of P-gp inhibitory potency (IC50), 12a versus 12b)","more active than diastereomer 14b (ratio of P-gp inhibitory potency (IC50), 14a versus 14b)",IC50 [3] [µM]
C[C@H](N[C@H]1c2cc(C#N)ccc2OC(C)(C)[C@@H]1O)C(=O)OC(C)(C)C [5b],-1.16,14.55 ± 0.05,–,–,–,–
CC(C)[C@H](N[C@H]1c2cc(C#N)ccc2OC(C)(C)[C@@H]1O)C(=O)OC(C)(C)C [6b],-0.43,2.7 ± 0.02,–,–,–,–
CC(C)(C)OC(=O)[C@H](Cc1ccccc1)N[C@@H]1c2cc(C#N)ccc2OC(C)(C)[C@H]1O [7a],0.26,0.55 ± 0.02,–,–,–,–
CC(C)(C)OC(=O)[C@H](Cc1ccccc1)N[C@H]1c2cc(C#N)ccc2OC(C)(C)[C@@H]1O [7b],0.11,0.77 ± 0.04,–,–,–,–
CC(C)[C@@H](N[C@@H]1c2cc(C#N)ccc2OC(C)(C)[C@H]1O)C(=O)OC(C)(C)C [10a],-0.66,4.62 ± 0.31,–,–,–,–
CC(C)[C@@H](N[C@H]1c2cc(C#N)ccc2OC(C)(C)[C@@H]1O)C(=O)OC(C)(C)C [10b],-0.13,1.34 ± 0.08,–,–,–,–
CC(C)[C@H](C(=O)OC(C)(C)C)N(C)[C@@H]1c2cc(C#N)ccc2OC(C)(C)[C@H]1O [11a],-0.004,1.01 ± 0.02,–,–,–,–
CC(C)[C@H](C(=O)OC(C)(C)C)N(C)[C@H]1c2cc(C#N)ccc2OC(C)(C)[C@@H]1O [11b],0.005,1 ± 0.05,–,–,–,–
C[C@@H]1N[C@@H]2c3cc(C#N)ccc3OC(C)(C)[C@H]2OC1=O [12a],-3.09,1241.6 ± 0.04,–,15,–,–
CC(C)[C@@H]1N[C@@H]2c3cc(C#N)ccc3OC(C)(C)[C@H]2OC1=O [13a],-1.18,15.3 ± 0.32,–,–,–,–
CC(C)[C@@H]1N[C@H]2c3cc(C#N)ccc3OC(C)(C)[C@@H]2OC1=O [13b],-1.77,59.3 ± 0.6,–,–,–,–
C[C@H]1C(=O)O[C@@H]2[C@H](c3cc(C#N)ccc3OC2(C)C)N1C [15b],-1.46,28.93 ± 0.15,–,–,–,–
CC(C)[C@H]1C(=O)O[C@@H]2[C@H](c3cc(C#N)ccc3OC2(C)C)N1C [16b],–,16.7 ± 0.2,–,–,–,16.6
CC(C)[C@H]1N[C@H]2c3cc(C#N)ccc3OC(C)(C)[C@@H]2OC1=O [17b],–,9.63 ± 0.08,–,–,–,9.55
CC(C)[C@@H]1C(=O)O[C@@H]2[C@H](c3cc(C#N)ccc3OC2(C)C)N1C [18b],–,27.84 ± 0.02,–,–,–,27.5
CC(C)[C@@H](CO)N[C@H]1c2cc(C#N)ccc2OC(C)(C)[C@@H]1O [19b],-2.01,102.6 ± 0.15,–,–,–,–
CC(C)[C@@H](CO)N(C)[C@@H]1c2cc(C#N)ccc2OC(C)(C)[C@H]1O [20a],-0.74,5.46 ± 0.24,–,–,–,–
CC(C)[C@@H](CO)N(C)[C@H]1c2cc(C#N)ccc2OC(C)(C)[C@@H]1O [20b],-0.83,6.84 ± 0.15,–,–,–,–
"CC(C)[C@H]1CO[C@H]2[C@H](N1)c1cc(C#N)ccc1OC2(C)C [21a, (2S,4aS,10bR)-2-isopropyl-5,5-dimethyl-1,4a,5,10b-tetrahydro-3H [1]benzopyrano[3,4-b][1,4]oxazine-9-carbonitril]",–,48.8 ± 0.09,–,–,–,49
CC(C)[C@@H](CCl)N(C)[C@@H]1c2cc(C#N)ccc2OC(C)(C)[C@H]1O [22a],-1.55,35.22 ± 0.02,–,–,–,–
CC(C)[C@@H](CCl)N(C)[C@H]1c2cc(C#N)ccc2OC(C)(C)[C@@H]1O [22b],-1.65,45.17 ± 0.05,–,–,–,–

# Continued by falling IC50 [2], values first:
Exp. LogIC50 [1],IC50 [2] [µM],factor more active than corresponding unsubstituted analogs 6a and 6b,"factor less active than diastereomeric 4aR,10bS analogue 12b (ratio of P-gp inhibitory potency (IC50), 12a versus 12b)","more active than diastereomer 14b (ratio of P-gp inhibitory potency (IC50), 14a versus 14b)",IC50 [3] [µM],Compound
-2.41,259.78 ± 0.06,–,–,–,–,CC1(C)Oc2ccc(C#N)cc2[C@@H]2N[C@@H](Cc3ccccc3)C(=O)O[C@H]21 [14b]
–,79.27 ± 0.05,–,–,–,77.6,CC(C)[C@@H]1C(=O)O[C@H]2[C@@H](c3cc(C#N)ccc3OC2(C)C)N1C [18a]
-1.88,76.89 ± 0.06,–,–,–,–,C[C@@H]1N[C@H]2c3cc(C#N)ccc3OC(C)(C)[C@@H]2OC1=O [12b]
-1.73,54.05 ± 0.31,–,–,–,–,CC(C)[C@@H](CO)N[C@@H]1c2cc(C#N)ccc2OC(C)(C)[C@H]1O [19a]
-1.68,47.8 ± 0.91,–,–,–,–,C[C@H]1C(=O)O[C@H]2[C@@H](c3cc(C#N)ccc3OC2(C)C)N1C [15a]
–,47.51 ± 0.4,–,–,–,47.9,CC(C)[C@H]1C(=O)O[C@H]2[C@@H](c3cc(C#N)ccc3OC2(C)C)N1C [16a]
–,44 ± 0.03,–,–,–,43.7,CC(C)[C@H]1CO[C@@H]2[C@@H](N1)c1cc(C#N)ccc1OC2(C)C [21b]
-1.47,29.85 ± 0.01,–,–,–,–,C[C@H](N[C@@H]1c2cc(C#N)ccc2OC(C)(C)[C@H]1O)C(=O)OC(C)(C)C [5a]
-0.60,3.96 ± 0.06,–,–,–,–,C[C@@H](C(=O)OC(C)(C)C)N(C)[C@@H]1c2cc(C#N)ccc2OC(C)(C)[C@H]1O [8a]
-0.57,3.72 ± 0.03,–,–,–,–,C[C@@H](C(=O)OC(C)(C)C)N(C)[C@H]1c2cc(C#N)ccc2OC(C)(C)[C@@H]1O [8b]
-0.42,2.68 ± 0.18,–,–,two orders of magnitude more active,–,CC1(C)Oc2ccc(C#N)cc2[C@H]2N[C@@H](Cc3ccccc3)C(=O)O[C@@H]21 [14a]
-0.38,2.4 ± 0.03,–,–,–,–,CC(C)[C@H](N[C@@H]1c2cc(C#N)ccc2OC(C)(C)[C@H]1O)C(=O)OC(C)(C)C [6a]
-0.13,1.35 ± 0.003,2,–,–,–,CC(C)[C@@H](C(=O)OC(C)(C)C)N(C)[C@H]1c2cc(C#N)ccc2OC(C)(C)[C@@H]1O [9b]
0.02,0.96 ± 0.06,2,–,–,–,CC(C)[C@@H](C(=O)OC(C)(C)C)N(C)[C@@H]1c2cc(C#N)ccc2OC(C)(C)[C@H]1O [9a]
